From ChEMBL document CHEMBL1145395, “De novo design of selective antibiotic peptides by incorporation of unnatural amino acids” (J Med Chem, 2007)
Non-standard residues stand in square brackets, D forms with d. Residues, ends and D or L forms follow the SMILES beside them. ξ: configuration not given here. Pro(3ξ,4ξ-(CH2)4) = O=C(O)[C@H]1NCC2CCCCC21; Oic = O=C(O)[C@@H]1C[C@@H]2CCCC[C@@H]2N1; Tic = O=C(O)[C@@H]1Cc2ccccc2CN1; βAla = NCCC(=O)O

Test: Toxicity to mouse RBC assessed as hemolytic activity at 100 uM
Type: cell-based, Erythrocyte
Conditions: red blood cells, read-out: Activity

Which hemolysis at 100 µM does the source give for CSCC[C@H](NC(=O)[C@H](CC(C)C)NC(=O)[C@H](CCC(=O)O)NC(=O)[C@@H]1C[C@@H]2CCCC[C@@H]2N1C(=O)[C@@H]1Cc2ccccc2CN1C(=O)[C@H](Cc1ccccc1)NC(=O)CCNC(=O)[C@@H]1C[C@@H]2CCCC[C@@H]2N1C(=O)[C@@H]1Cc2ccccc2CN1C(=O)[C@H](CCCCN)NC(=O)CCNC(=O)[C@@H]1C[C@@H]2CCCC[C@@H]2N1C(=O)[C@@H]1Cc2ccccc2CN1C(=O)[C@H](Cc1ccccc1)NC(=O)CCNC(=O)[C@@H]1C[C@@H]2CCCC[C@@H]2N1C(=O)[C@@H]1Cc2ccccc2CN1C(=O)[C@H](CCCCN)NC(=O)CCNC(=O)[C@@H]1C[C@@H]2CCCC[C@@H]2N1C(=O)[C@@H]1Cc2ccccc2CN1C(=O)[C@H](CC(C)C)NC(=O)CNC(=O)[C@H](CCCCN)NC(=O)CN)C(=O)N[C@@H](CC(N)=O)C(=O)N[C@@H](CO)C(N)=O (H-GKGL[Tic][Oic][βAla]K[Tic][Oic][βAla]F[Tic][Oic][βAla]K[Tic][Oic][βAla]F[Tic][Oic]ELMNS-NH2) here?
Its hemolysis at 100 µM is 55%.

With CC(C)C[C@H](NC(=O)CNC(=O)[C@H](CCCCN)NC(=O)CN)C(=O)N1Cc2ccccc2C[C@H]1C(=O)N1CC2CCCCC2[C@H]1C(=O)N[C@@H](Cc1ccccc1)C(=O)N[C@@H](CCCCN)C(=O)N1Cc2ccccc2C[C@H]1C(=O)N1CC2CCCCC2[C@H]1C(=O)N[C@@H](CCCCN)C(=O)N[C@@H](Cc1ccccc1)C(=O)N1Cc2ccccc2C[C@H]1C(=O)N1CC2CCCCC2[C@H]1C(=O)N[C@@H](Cc1ccccc1)C(=O)N[C@@H](CCCCN)C(=O)N1Cc2ccccc2C[C@H]1C(=O)N1CC2CCCCC2[C@H]1C(=O)N[C@@H](CCCCN)C(=O)N[C@@H](Cc1ccccc1)C(=O)N1Cc2ccccc2C[C@H]1C(=O)N1CC2CCCCC2[C@H]1C(=O)N[C@@H](Cc1ccccc1)C(=O)N[C@@H](CCCCN)C(=O)N1Cc2ccccc2C[C@H]1C(=O)N1CC2CCCCC2[C@H]1C(=O)N[C@@H](Cc1ccccc1)C(=O)N[C@@H](CCCCN)C(=O)N[C@@H](CCCNC(=N)N)C(N)=O (stereo partly drawn) (H-GKGL[Tic][Pro(3ξ,4ξ-(CH2)4)]FK[Tic][Pro(3ξ,4ξ-(CH2)4)]KF[Tic][Pro(3ξ,4ξ-(CH2)4)]FK[Tic][Pro(3ξ,4ξ-(CH2)4)]KF[Tic][Pro(3ξ,4ξ-(CH2)4)]FK[Tic][Pro(3ξ,4ξ-(CH2)4)]FKR-NH2) as the molecule, how does the hemolysis at 100 µM read?
Its hemolysis at 100 µM is 100%.

Which hemolysis at 100 µM does the source give for CC(C)C[C@H](NC(=O)CNC(=O)[C@H](CCCCN)NC(=O)CN)C(=O)N1Cc2ccccc2C[C@H]1C(=O)N1CC2CCCCC2[C@H]1C(=O)NCC(=O)N[C@@H](CCCCN)C(=O)N1Cc2ccccc2C[C@H]1C(=O)N1CC2CCCCC2[C@H]1C(=O)NCC(=O)N[C@@H](Cc1ccccc1)C(=O)N1Cc2ccccc2C[C@H]1C(=O)N1CC2CCCCC2[C@H]1C(=O)NCC(=O)N[C@@H](CCCCN)C(=O)N1Cc2ccccc2C[C@H]1C(=O)N1CC2CCCCC2[C@H]1C(=O)NCC(=O)N[C@@H](Cc1ccccc1)C(=O)N1Cc2ccccc2C[C@H]1C(=O)N1CC2CCCCC2[C@H]1C(=O)NCC(=O)N[C@@H](CCCCN)C(=O)N1Cc2ccccc2C[C@H]1C(=O)N1CC2CCCCC2[C@H]1C(=O)NCC(=O)N[C@@H](CCCCN)C(=O)N[C@@H](CCCNC(=N)N)C(N)=O (stereo partly drawn) (H-GKGL[Tic][Pro(3ξ,4ξ-(CH2)4)]GK[Tic][Pro(3ξ,4ξ-(CH2)4)]GF[Tic][Pro(3ξ,4ξ-(CH2)4)]GK[Tic][Pro(3ξ,4ξ-(CH2)4)]GF[Tic][Pro(3ξ,4ξ-(CH2)4)]GK[Tic][Pro(3ξ,4ξ-(CH2)4)]GKR-NH2) here?
The hemolysis at 100 µM was 33.4%.
